Data: publication PMC10120462, “Styrylquinazoline derivatives as ABL inhibitors selective for different DFG orientations” (Journal of Enzyme Inhibition and Medicinal Chemistry, 2023)
Entries after “also recorded” stand apart in the source; their conditions may differ.

Key:
K562 cells = test: Cell cycle assay (Muse Cell-Cycle Kit, flow cytometry); type: cell-based, human; conditions: 16 h; for Fraction of cells in the G2/M phase: control 28.68%; for Population of cells in the G0/G1 phase: untreated 42.56%
Procedure: The interesting inhibitory potential of ABL kinase and the high antiproliferative activity of several styrylquinazoline derivatives prompted us to further investigate their mechanism of action.
K562 cells were seeded in 3 cm Petri dishes (Nunc) at a density of 150,000 cells per well and incubated under standard conditions at 37 °C for 24 h. […] After 16 h of treatment, assays were performed using a Muse Cell-Cycle Kit (Millipore) according to the supplier’s instructions. Briefly, leukaemia cells were collected, washed in cold PBS, and centrifuged. Cells were then fixed in ice-cold 70% ethanol and stored at −20 °C overnight. The next day, leukaemia cells were washed with cold PBS, centrifuged and resuspended in Muse™ Cell Cycle Reagent. Samples were incubated for 30 min at room temperature in the dark. After staining, the levels of cellular subpopulations in each cell cycle phase were determined using a Muse Cell Analyser (Millipore). Experiments were performed at least four times.

ABL = molecular target: T1, ABL (Homo sapiens, UniProt P00519); test: Pharmacological synergy on the ABL enzyme model (ABL1 Kinase Assay); type: biochemical; conditions: Chou-Talalay method
T1 construct: purchased Promega
Procedure: We selected the aforementioned reference inhibitors based on their different modes of interaction with the kinases. […] Thus, the results of this experiment may allow identification of the site where the IS1 inhibitor binds to ABL kinase.
Synergy experiments were performed analogously to our previous reports[36]^,[65]. Synergy was calculated by the Chou-Talay method (CompuSyn software)[66]^,[67]. Experiments were performed at least three times.

T1 sequence (P00519 whole entry): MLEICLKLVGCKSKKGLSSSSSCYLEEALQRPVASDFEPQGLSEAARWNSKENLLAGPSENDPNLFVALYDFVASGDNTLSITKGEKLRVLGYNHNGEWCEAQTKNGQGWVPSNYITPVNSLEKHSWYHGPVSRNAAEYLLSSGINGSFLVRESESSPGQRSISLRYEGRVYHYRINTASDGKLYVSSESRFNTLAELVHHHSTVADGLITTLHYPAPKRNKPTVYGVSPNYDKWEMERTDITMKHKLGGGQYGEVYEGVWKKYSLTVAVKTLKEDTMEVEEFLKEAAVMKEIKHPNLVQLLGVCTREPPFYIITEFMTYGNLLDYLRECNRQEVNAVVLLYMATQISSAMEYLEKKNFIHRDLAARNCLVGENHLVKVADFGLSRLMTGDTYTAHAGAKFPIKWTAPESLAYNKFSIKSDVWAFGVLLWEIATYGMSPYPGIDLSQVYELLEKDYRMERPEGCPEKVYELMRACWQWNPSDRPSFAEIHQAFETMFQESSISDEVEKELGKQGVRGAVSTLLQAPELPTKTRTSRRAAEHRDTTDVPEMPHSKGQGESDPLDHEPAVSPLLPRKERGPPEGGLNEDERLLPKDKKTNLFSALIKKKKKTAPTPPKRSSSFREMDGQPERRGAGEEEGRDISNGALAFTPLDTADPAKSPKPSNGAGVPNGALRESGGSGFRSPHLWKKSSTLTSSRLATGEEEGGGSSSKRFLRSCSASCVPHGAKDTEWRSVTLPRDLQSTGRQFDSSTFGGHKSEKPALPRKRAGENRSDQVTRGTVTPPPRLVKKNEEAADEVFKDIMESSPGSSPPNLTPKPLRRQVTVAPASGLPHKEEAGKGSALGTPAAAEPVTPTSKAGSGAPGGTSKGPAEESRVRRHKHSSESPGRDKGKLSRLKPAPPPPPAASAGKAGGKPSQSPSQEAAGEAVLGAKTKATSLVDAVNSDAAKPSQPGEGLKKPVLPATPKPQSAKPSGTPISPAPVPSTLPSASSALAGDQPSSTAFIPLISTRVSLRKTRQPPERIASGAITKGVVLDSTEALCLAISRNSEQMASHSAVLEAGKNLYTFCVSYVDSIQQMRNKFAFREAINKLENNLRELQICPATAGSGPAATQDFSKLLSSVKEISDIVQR

COc1ccccc1/C=C/c1nc(Sc2cccc(O)c2)c2ccccc2n1 [IS8, 3-{2-[(E)-2–(2-methoxyphenyl)ethenyl]quinazolin-4-ylthio}phenol]
Fraction of cells in the G2/M phase (K562 cells; 12 µM): 39.38% | Cell cycle arrest (phase) (K562 cells): arrested the cells in G2/M phase

COc1ccccc1/C=C/c1nc(Sc2ccc3c(c2)OCO3)c2ccccc2n1 [IS10, 5-{2-[(E)-2–(2-methoxyphenyl)ethenyl]quinazolin-4-ylthio}-2H-1,3-benzodioxole]
Population of cells in the S phase (K562 cells; concentration not given, control 23.66%): 12.85% | Fraction of cells in the G2/M phase (K562 cells; concentration not given): 46.35% | Population of cells in the G0/G1 phase (K562 cells; concentration not given): 33.00%

NC(=O)c1cccc(-c2cc(Nc3ccc(OC(F)(F)F)cc3)ncn2)c1 [GNF-2, reference compound]
Cell cycle arrest (phase) (K562 cells): inhibition of G0/G1 phase

COc1ccccc1/C=C/c1nc(Sc2ccccc2Cl)c2ccccc2n1 [IS1, 2-[(E)-2–(2-methoxyphenyl)ethenyl]-4–(2-chlorophenylthio)quinazoline]
Cell cycle arrest (phase) (K562 cells): cell cycle arrest in G0/G1 phase | Population of cells in the G0/G1 phase (K562 cells; concentration not given): 50.85% | Effect on ABL inhibition of IS1 in combination with GNF-2 (ABL): significantly attenuated inhibition; also recorded: antagonistic outcome | Effect on ABL inhibition of IS1 in combination with dasatinib (ABL): virtually no effect | Effect on ABL inhibition of IS1 in combination with imatinib (ABL): synergistic effect
